Source: paper PMC10762078, “Role of UPF1-LIN28A interaction during early differentiation of pluripotent stem cells” (Nature Communications, 2024)
Ends that are not written are not given here.

Tests used:
[1] = test system: nonsense-mediated mRNA decay (NMD); test: NMD reporter mRNA by RT-qPCR in HeLa cells without LIN28A, with CPP-peptides (Supplementary Fig. 5c); type: cell-based; conditions: no LIN28A, 2 μM, n = 5
Protocol: For CPP-conjugated peptide delivery, HeLa, 293T, and PA-1 cells were incubated with CPP-conjugated peptides or CPP-FITC at 2 μM in DMEM with 10% FBS for 12 h a day before cell harvest. hPSCs were treated with CPP-conjugated peptides at 10 μM in mTeSR Plus Medium, and the peptide-containing medium was changed every day over 10 days. The ROCK inhibitor (Tocris Bioscience, Y-27632) treated-hPSCs were dissociated into single cells using Accutase (Merck, SCR005) and differentiated into ectoderm, mesoderm, and endoderm using the STEMdiff Trilineage Differentiation Kit ([…] Technologies, 05230) following the manufacturer’s protocol. Differentiated cells treated with CPP-conjugated peptides were analysed at 0, 3, and 5 days for ectoderm and endoderm, and at 0, 3, and 4 days for mesoderm. […]
cDNA was synthesised using RevertAid Reverse Transcriptase (Thermo Fisher Scientific, EP0441) with synthesised random hexamer (Macrogen) for total RNA or stem-loop primers for miRNA. For RT-qPCR reactions, the SensiFAST SYBR No-ROX kit (Meridian Bioscience) was used according to the manufacturer’s protocol. All data analysis and visualisation were conducted using R 3.6.1 [www.r-project.org] or GraphPad Prism 10. RT primers for miRNA and RT-qPCR primer sequences are provided in Supplementary Data 6. […]

UPF1-LIN28A interaction = test: Proximity ligation assay (PLA) of UPF1-LIN28A complexes; type: cell-based; conditions: LIN28A-overexpressing HeLa and CHA15 cells, n = 3
Protocol: The in situ proximity ligation assay (PLA) was performed on fixed and permeabilised cells using Duolink In Situ Red kit mouse/rabbit (Sigma-Aldrich, DUO92101), according to the manufacturer’s protocol. Briefly, fixed and permeabilised cells were incubated with a blocking solution for 1 h at 37 °C and then incubated with the following primary antibodies: anti-UPF1 (Cell Signaling Technology, 12040; 1:200) and LIN28A (Cell Signaling Technology, 5930; 1:200) overnight at 4 °C. After incubation, the coverslips were washed twice with 1× buffer A, followed by incubation with PLA probes for 1 h at 37 °C. After washing twice with 1× buffer A for 5 min, the coverslip was incubated with the ligation solution for 30 min at 37 °C. Coverslips were washed twice with 1× buffer A, followed by an amplification step with polymerase for 100 min at 37 °C. Finally, the coverslip was washed twice with 1× buffer B and once with 0.01× buffer B and then mounted in […] with DAPI mounting medium (Vector Laboratories, H1200).
Immunofluorescence staining, proximity ligation assay imaging, and cell-penetrating efficiency of CPP-FITC were imaged with a confocal laser scanning microscope (Leica, TSC SP5) or immunofluorescence microscope (Leica, DM5000B). Z-stacks were captured, with sections spanning the entire cell. […]

His-LIN28A = target: T1, His-LIN28A (Homo sapiens, UniProt Q9H9Z2); test: SPR kinetic evaluation of peptide binding to immobilised His-LIN28A
T1 construct: purchased LS-bio LS-G637
T1 sequence (Q9H9Z2 1-209): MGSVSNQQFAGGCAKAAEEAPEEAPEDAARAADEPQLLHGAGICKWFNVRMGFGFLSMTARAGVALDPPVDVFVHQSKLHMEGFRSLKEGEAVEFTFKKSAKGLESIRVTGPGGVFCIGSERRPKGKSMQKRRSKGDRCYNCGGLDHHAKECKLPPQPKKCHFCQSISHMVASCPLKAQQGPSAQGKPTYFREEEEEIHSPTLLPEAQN
Protocol: For ligand immobilisation, the nitrilotriacetic acid (NTA) surface gold sensor chip (icluebio) was activated with 5 mM NiCl2 (Xantec) at a flow rate of 30 μL/min, following equalisation with 1× HBS-T buffer. His-LIN28A (LS-bio, LS-G637) was used as a ligand protein and was applied to a sensor chip at a flow rate of 10 μL/min for 40 min after dilution in 1× HEPES-buffered saline (HBS-T) buffer at a 1/20 ratio. Approximately 1000 resonance units (RU) were bonded to the sensor chip after ligand immobilisation. RU was measured using iMSPR-ProX (icluebio). An indigenous NTA sensor chip was used as a reference channel.
Kinetics assessment was performed for peptides with RU values greater than 5.

Row | Sequence | effect on NMD in absence of LIN28A [1] | PLA signal of UPF1-LIN28A complexes (UPF1-LIN28A interaction) | kd (His-LIN28A; His-LIN28A ligand, peptide analyte 30 to 0.95 μM, HBS-T) [s⁻¹] | kon (His-LIN28A; His-LIN28A ligand, peptide analyte 30 to 0.95 μM, HBS-T, read-out: ka) [M⁻¹ s⁻¹] | binding affinity to LIN28A (His-LIN28A; diverse concentrations)
1 | KKKWCRKKKSSADEKRYRALKRTAERELLMNA [CPP-P8, CPP conjugated to P8] | did not affect NMD in the absence of LIN28A | weaker signals than CPP-P1 or -P2 | – | – | –
2 | KKKWCRKKKSSADEKRYRALKRTAERELLMNA [P8] | – | – | 0.0137 | 2640 | high binding affinity to LIN28A
